Laboratory results from PubChem BioAssay AID1963965 (Molecular Pharmacology Branch, DTP, NCI, 2024).

Test system: 996289-038-R-J1-PDC spheroid viability
Experiment: Anticancer human tumor 996289-038-R-J1-PDC patient-derived colon adenocarcinoma cell line growth inhibition [PI3K]
Settings: spheroids with HUVEC and MSC; for IC50: curve of first compound; for viability, T/C: stronger effect = lower value
Outline: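 Stroma-containing spheroids: tumor line, pooled-donor HUVEC, hMSC. Treatments: targeted agents with PI3K inhibitors. Dosing: clinically relevant, half-log spacing, 10 microM ceiling without known Cmax. Read-out: cell viability.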

[1] = second compound 0.0316 µM, first compound 0.0316 µM
[2] = second compound 0.0316 µM, first compound 0.1 µM
[3] = second compound 0.0316 µM, first compound 0.316 µM
[4] = second compound 0.0316 µM, first compound 1 µM
[5] = second compound 0.0316 µM, first compound 3.16 µM
[6] = second compound 0.0316 µM, first compound 10 µM
[7] = second compound 0.1 µM, first compound 0.0316 µM
[8] = second compound 0.1 µM, first compound 0.1 µM
[9] = second compound 0.1 µM, first compound 0.316 µM
[10] = second compound 0.1 µM, first compound 1 µM
[11] = second compound 0.1 µM, first compound 3.16 µM
[12] = second compound 0.1 µM, first compound 10 µM
[13] = second compound 0.316 µM, first compound 0.0316 µM
[14] = second compound 0.316 µM, first compound 0.1 µM
[15] = second compound 0.316 µM, first compound 0.316 µM
[16] = second compound 0.316 µM, first compound 1 µM
[17] = second compound 0.316 µM, first compound 3.16 µM
[18] = second compound 0.316 µM, first compound 10 µM
[19] = second compound 1 µM, first compound 0.0316 µM
[20] = second compound 1 µM, first compound 0.1 µM
[21] = second compound 1 µM, first compound 0.316 µM
[22] = second compound 1 µM, first compound 1 µM
[23] = second compound 1 µM, first compound 3.16 µM
[24] = second compound 1 µM, first compound 10 µM
[25] = second compound 3.16 µM, first compound 0.0316 µM
[26] = second compound 3.16 µM, first compound 0.1 µM
[27] = second compound 3.16 µM, first compound 0.316 µM
[28] = second compound 3.16 µM, first compound 1 µM
[29] = second compound 3.16 µM, first compound 3.16 µM
[30] = second compound 3.16 µM, first compound 10 µM
[31] = second compound 10 µM, first compound 0.0316 µM
[32] = second compound 10 µM, first compound 0.1 µM
[33] = second compound 10 µM, first compound 0.316 µM
[34] = second compound 10 µM, first compound 1 µM
[35] = second compound 10 µM, first compound 3.16 µM
[36] = second compound 10 µM, first compound 10 µM
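Further: spheroids exposed to compounds for seven days before viability read.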
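Wherever viability, T/C is given: luminescence used as a proxy for viable cell amount; percent viability relative to DMSO vehicle control as 100%.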

Question: With C=CC(=O)N1CCN(c2nc(=O)n(-c3c(C)ccnc3C(C)C)c3nc(-c4c(O)cccc4F)c(F)cc23)C(C)C1 (stereo unspecified) + CC(Nc1ncnc2nc[nH]c12)c1cc2cccc(Cl)c2c(=O)n1-c1ccccc1 as the compound, how does the IC50 (second compound 0.0316 µM) read?
Answer: > 10 µM

Question: And the IC50 (second compound 0.1 µM)?
Answer: > 10 µM

Question: And the IC50 (second compound 0.316 µM)?
Answer: > 10 µM

Question: What about the IC50 (second compound 1 µM) of the same compound?
Answer: > 10 µM

Question: And the IC50 (second compound 3.16 µM)?
Answer: > 10 µM

Question: And the IC50 (second compound 10 µM)?
Answer: > 10 µM

Question: What about the viability, T/C [1] of the same compound?
Answer: 101%

Question: And the viability, T/C [2]?
Answer: 97.8%

Question: And the viability, T/C [3]?
Answer: 91.2%

Question: What about the viability, T/C [4] of the same compound?
Answer: 100%

Question: And the viability, T/C [5]?
Answer: 107%

Question: What about the viability, T/C [6] of the same compound?
Answer: 106%

Question: And the viability, T/C [7]?
Answer: 113%

Question: What about the viability, T/C [8] of the same compound?
Answer: 93.1%

Question: What about the viability, T/C [9] of the same compound?
Answer: 98.1%

Question: And the viability, T/C [10]?
Answer: 106%

Question: And the viability, T/C [11]?
Answer: 120%

Question: And the viability, T/C [12]?
Answer: 97%

Question: And the viability, T/C [13]?
Answer: 95.1%

Question: And the viability, T/C [14]?
Answer: 106%

Question: And the viability, T/C [15]?
Answer: 107%

Question: And the viability, T/C [16]?
Answer: 107%

Question: What about the viability, T/C [17] of the same compound?
Answer: 105%

Question: What about the viability, T/C [18] of the same compound?
Answer: 105%

Question: What about the viability, T/C [19] of the same compound?
Answer: 93.8%

Question: What about the viability, T/C [20] of the same compound?
Answer: 88.3%

Question: And the viability, T/C [21]?
Answer: 101%

Question: And the viability, T/C [22]?
Answer: 98.6%

Question: And the viability, T/C [23]?
Answer: 112%

Question: And the viability, T/C [24]?
Answer: 99.6%

Question: And the viability, T/C [25]?
Answer: 97.2%

Question: What about the viability, T/C [26] of the same compound?
Answer: 101%

Question: What about the viability, T/C [27] of the same compound?
Answer: 88.3%

Question: What about the viability, T/C [28] of the same compound?
Answer: 101%

Question: What about the viability, T/C [29] of the same compound?
Answer: 118%

Question: What about the viability, T/C [30] of the same compound?
Answer: 107%

Question: What about the viability, T/C [31] of the same compound?
Answer: 103%

Question: What about the viability, T/C [32] of the same compound?
Answer: 88.4%

Question: And the viability, T/C [33]?
Answer: 90.7%

Question: And the viability, T/C [34]?
Answer: 97.9%

Question: And the viability, T/C [35]?
Answer: 105%

Question: What about the viability, T/C [36] of the same compound?
Answer: 95.9%

Question: With Cn1ncc(Cl)c1-c1cc(C(=O)NC(CN)Cc2cccc(F)c2)sc1Cl (stereo unspecified) + CC(Nc1ncnc2nc[nH]c12)c1cc2cccc(Cl)c2c(=O)n1-c1ccccc1 as the compound, how does the IC50 (second compound 0.0316 µM) read?
Answer: > 10 µM

Question: And the IC50 (second compound 0.1 µM)?
Answer: > 10 µM

Question: And the IC50 (second compound 0.316 µM)?
Answer: > 10 µM

Question: And the IC50 (second compound 1 µM)?
Answer: 9.38 µM

Question: And the IC50 (second compound 3.16 µM)?
Answer: 7.97 µM

Question: What about the IC50 (second compound 10 µM) of the same compound?
Answer: 5.1 µM

Question: And the viability, T/C [1]?
Answer: 92.2%

Question: What about the viability, T/C [2] of the same compound?
Answer: 92.1%

Question: What about the viability, T/C [3] of the same compound?
Answer: 81.2%

Question: And the viability, T/C [4]?
Answer: 71.6%

Question: And the viability, T/C [5]?
Answer: 70.6%

Question: And the viability, T/C [6]?
Answer: 61.2%

Question: And the viability, T/C [7]?
Answer: 102%

Question: What about the viability, T/C [8] of the same compound?
Answer: 88.5%

Question: What about the viability, T/C [9] of the same compound?
Answer: 83.5%

Question: What about the viability, T/C [10] of the same compound?
Answer: 73.9%

Question: What about the viability, T/C [11] of the same compound?
Answer: 69.1%

Question: What about the viability, T/C [12] of the same compound?
Answer: 54.2%

Question: What about the viability, T/C [13] of the same compound?
Answer: 102%

Question: And the viability, T/C [14]?
Answer: 98.8%

Question: And the viability, T/C [15]?
Answer: 85.2%

Question: What about the viability, T/C [16] of the same compound?
Answer: 73.3%

Question: What about the viability, T/C [17] of the same compound?
Answer: 69.7%

Question: What about the viability, T/C [18] of the same compound?
Answer: 49.3%

Question: What about the viability, T/C [19] of the same compound?
Answer: 108%

Question: And the viability, T/C [20]?
Answer: 97.5%

Question: What about the viability, T/C [21] of the same compound?
Answer: 90.2%

Question: What about the viability, T/C [22] of the same compound?
Answer: 91.7%

Question: What about the viability, T/C [23] of the same compound?
Answer: 71.2%

Question: And the viability, T/C [24]?
Answer: 48.3%

Question: And the viability, T/C [25]?
Answer: 85.6%

Question: And the viability, T/C [26]?
Answer: 94%

Question: What about the viability, T/C [27] of the same compound?
Answer: 88.6%

Question: What about the viability, T/C [28] of the same compound?
Answer: 85%

Question: And the viability, T/C [29]?
Answer: 67.6%

Question: And the viability, T/C [30]?
Answer: 45.7%

Question: And the viability, T/C [31]?
Answer: 84.1%

Question: And the viability, T/C [32]?
Answer: 91.2%

Question: What about the viability, T/C [33] of the same compound?
Answer: 92%

Question: And the viability, T/C [34]?
Answer: 79%

Question: And the viability, T/C [35]?
Answer: 58.1%

Question: What about the viability, T/C [36] of the same compound?
Answer: 39.2%

Question: With Cn1nccc1Nc1nccc(-c2ccn(C(CO)c3ccc(Cl)c(F)c3)c(=O)c2)n1 (stereo unspecified) + CC(Nc1ncnc2nc[nH]c12)c1cc2cccc(Cl)c2c(=O)n1-c1ccccc1 as the compound, how does the IC50 (second compound 0.0316 µM) read?
Answer: > 10 µM

Question: What about the IC50 (second compound 0.1 µM) of the same compound?
Answer: > 10 µM

Question: And the IC50 (second compound 0.316 µM)?
Answer: > 10 µM

Question: And the IC50 (second compound 1 µM)?
Answer: 8.64 µM

Question: What about the IC50 (second compound 3.16 µM) of the same compound?
Answer: > 10 µM

Question: And the IC50 (second compound 10 µM)?
Answer: 7.53 µM

Question: And the viability, T/C [1]?
Answer: 86.6%

Question: And the viability, T/C [2]?
Answer: 97.5%

Question: What about the viability, T/C [3] of the same compound?
Answer: 95.5%

Question: And the viability, T/C [4]?
Answer: 90.1%

Question: And the viability, T/C [5]?
Answer: 84.6%

Question: What about the viability, T/C [6] of the same compound?
Answer: 61.5%

Question: And the viability, T/C [7]?
Answer: 108%

Question: What about the viability, T/C [8] of the same compound?
Answer: 89.4%

Question: What about the viability, T/C [9] of the same compound?
Answer: 120%

Question: What about the viability, T/C [10] of the same compound?
Answer: 92.8%

Question: What about the viability, T/C [11] of the same compound?
Answer: 81.7%

Question: What about the viability, T/C [12] of the same compound?
Answer: 53.1%

Question: And the viability, T/C [13]?
Answer: 105%

Question: And the viability, T/C [14]?
Answer: 90.8%

Question: And the viability, T/C [15]?
Answer: 105%

Question: What about the viability, T/C [16] of the same compound?
Answer: 93.3%

Question: What about the viability, T/C [17] of the same compound?
Answer: 79.6%

Question: And the viability, T/C [18]?
Answer: 55.6%

Question: What about the viability, T/C [19] of the same compound?
Answer: 91.7%

Question: And the viability, T/C [20]?
Answer: 101%

Question: What about the viability, T/C [21] of the same compound?
Answer: 87.9%

Question: What about the viability, T/C [22] of the same compound?
Answer: 94.4%

Question: What about the viability, T/C [23] of the same compound?
Answer: 76.9%

Question: And the viability, T/C [24]?
Answer: 46.1%

Question: And the viability, T/C [25]?
Answer: 88.1%

Question: And the viability, T/C [26]?
Answer: 87.2%

Question: What about the viability, T/C [27] of the same compound?
Answer: 99.7%

Question: And the viability, T/C [28]?
Answer: 86.1%

Question: And the viability, T/C [29]?
Answer: 70.3%

Question: What about the viability, T/C [30] of the same compound?
Answer: 57.1%

Question: And the viability, T/C [31]?
Answer: 82.7%

Question: And the viability, T/C [32]?
Answer: 88.5%

Question: What about the viability, T/C [33] of the same compound?
Answer: 91.1%

Question: And the viability, T/C [34]?
Answer: 81.7%

Question: What about the viability, T/C [35] of the same compound?
Answer: 70.8%

Question: And the viability, T/C [36]?
Answer: 43.3%
